PubChem BioAssay AID1963828 (Molecular Pharmacology Branch, DTP, NCI, 2024)

Tested on: 991263-137-R1-J2-PDC complex spheroid viability
Experiment: Anticancer human tumor 991263-137-R1-J2-PDC patient-derived colon adenocarcinoma cell line growth inhibition [POLQ]
Settings: for IC50: curve of first compound; for viability, T/C: stronger effect = lower value
Summary of the method: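 Patient-derived tumour cells were co-cultured with HUVEC and mesenchymal stem cells as multicellular spheroids at 37 °C. They were treated with POLQ inhibitors (novobiocin, ART-558, RP6685) alone or combined with other agents. Top concentrations were at or near clinical Cmax (otherwise 10 microM; SN-38 at 1 microM), decreasing in half-log steps.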

[1] = second compound 0.0316 µM, first compound 0.0316 µM
[2] = second compound 0.0316 µM, first compound 0.1 µM
[3] = second compound 0.0316 µM, first compound 0.316 µM
[4] = second compound 0.0316 µM, first compound 1 µM
[5] = second compound 0.0316 µM, first compound 3.16 µM
[6] = second compound 0.0316 µM, first compound 10 µM
[7] = second compound 0.1 µM, first compound 0.0316 µM
[8] = second compound 0.1 µM, first compound 0.1 µM
[9] = second compound 0.1 µM, first compound 0.316 µM
[10] = second compound 0.1 µM, first compound 1 µM
[11] = second compound 0.1 µM, first compound 3.16 µM
[12] = second compound 0.1 µM, first compound 10 µM
[13] = second compound 0.316 µM, first compound 0.0316 µM
[14] = second compound 0.316 µM, first compound 0.1 µM
[15] = second compound 0.316 µM, first compound 0.316 µM
[16] = second compound 0.316 µM, first compound 1 µM
[17] = second compound 0.316 µM, first compound 3.16 µM
[18] = second compound 0.316 µM, first compound 10 µM
[19] = second compound 1 µM, first compound 0.0316 µM
[20] = second compound 1 µM, first compound 0.1 µM
[21] = second compound 1 µM, first compound 0.316 µM
[22] = second compound 1 µM, first compound 1 µM
[23] = second compound 1 µM, first compound 3.16 µM
[24] = second compound 1 µM, first compound 10 µM
[25] = second compound 3.16 µM, first compound 0.0316 µM
[26] = second compound 3.16 µM, first compound 0.1 µM
[27] = second compound 3.16 µM, first compound 0.316 µM
[28] = second compound 3.16 µM, first compound 1 µM
[29] = second compound 3.16 µM, first compound 3.16 µM
[30] = second compound 3.16 µM, first compound 10 µM
[31] = second compound 10 µM, first compound 0.0316 µM
[32] = second compound 10 µM, first compound 0.1 µM
[33] = second compound 10 µM, first compound 0.316 µM
[34] = second compound 10 µM, first compound 1 µM
[35] = second compound 10 µM, first compound 3.16 µM
[36] = second compound 10 µM, first compound 10 µM
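Further: spheroids exposed to compounds for 7 days before readout.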
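Wherever viability, T/C is given: 100% = DMSO vehicle control viability.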

Question: Which IC50 (second compound 0.0316 µM) does the source give for COc1cc(C2c3cc4c(cc3C(OC3OC5COC(C)OC5C(O)C3O)C3COC(=O)C23)OCO4)cc(OC)c1O (stereo unspecified) + Nc1ccc(C#CCN(C(=O)Cc2ncc(C(F)(F)F)cc2C(F)(F)F)c2ccc(F)cc2)nn1 here?
Answer: The IC50 was greater than 10 µM.

Question: And the IC50 (second compound 0.1 µM)?
Answer: The IC50 was greater than 10 µM.

Question: And the IC50 (second compound 0.316 µM)?
Answer: The IC50 was greater than 10 µM.

Question: What about the IC50 (second compound 1 µM) of the same compound?
Answer: Its IC50 is greater than 10 µM.

Question: What about the IC50 (second compound 3.16 µM) of the same compound?
Answer: The IC50 was greater than 10 µM.

Question: What about the IC50 (second compound 10 µM) of the same compound?
Answer: Its IC50 is greater than 10 µM.

Question: And the viability, T/C [1]?
Answer: The viability, T/C was 106%.

Question: And the viability, T/C [2]?
Answer: The viability, T/C was 94.4%.

Question: What about the viability, T/C [3] of the same compound?
Answer: The viability, T/C was 108%.

Question: And the viability, T/C [4]?
Answer: Its viability, T/C is 94.4%.

Question: And the viability, T/C [5]?
Answer: The viability, T/C was 93.2%.

Question: And the viability, T/C [6]?
Answer: The viability, T/C was 74.4%.

Question: And the viability, T/C [7]?
Answer: Its viability, T/C is 115%.

Question: What about the viability, T/C [8] of the same compound?
Answer: The viability, T/C was 99.8%.

Question: And the viability, T/C [9]?
Answer: Its viability, T/C is 102%.

Question: And the viability, T/C [10]?
Answer: The viability, T/C was 98.9%.

Question: And the viability, T/C [11]?
Answer: The viability, T/C was 91%.

Question: And the viability, T/C [12]?
Answer: The viability, T/C was 74.5%.

Question: And the viability, T/C [13]?
Answer: The viability, T/C was 97.9%.

Question: What about the viability, T/C [14] of the same compound?
Answer: The viability, T/C was 122%.

Question: What about the viability, T/C [15] of the same compound?
Answer: The viability, T/C was 107%.

Question: And the viability, T/C [16]?
Answer: Its viability, T/C is 92.4%.

Question: And the viability, T/C [17]?
Answer: Its viability, T/C is 93.5%.

Question: What about the viability, T/C [18] of the same compound?
Answer: Its viability, T/C is 72.2%.

Question: And the viability, T/C [19]?
Answer: The viability, T/C was 100%.

Question: What about the viability, T/C [20] of the same compound?
Answer: Its viability, T/C is 104%.

Question: And the viability, T/C [21]?
Answer: Its viability, T/C is 97.8%.

Question: What about the viability, T/C [22] of the same compound?
Answer: The viability, T/C was 96.4%.

Question: What about the viability, T/C [23] of the same compound?
Answer: The viability, T/C was 99.9%.

Question: And the viability, T/C [24]?
Answer: The viability, T/C was 74.9%.

Question: What about the viability, T/C [25] of the same compound?
Answer: The viability, T/C was 96.3%.

Question: What about the viability, T/C [26] of the same compound?
Answer: The viability, T/C was 96.8%.

Question: What about the viability, T/C [27] of the same compound?
Answer: The viability, T/C was 103%.

Question: What about the viability, T/C [28] of the same compound?
Answer: The viability, T/C was 86.7%.

Question: What about the viability, T/C [29] of the same compound?
Answer: The viability, T/C was 72.1%.

Question: What about the viability, T/C [30] of the same compound?
Answer: Its viability, T/C is 66.1%.

Question: And the viability, T/C [31]?
Answer: Its viability, T/C is 89.6%.

Question: And the viability, T/C [32]?
Answer: Its viability, T/C is 96.1%.

Question: And the viability, T/C [33]?
Answer: Its viability, T/C is 88.7%.

Question: What about the viability, T/C [34] of the same compound?
Answer: Its viability, T/C is 68.8%.

Question: And the viability, T/C [35]?
Answer: The viability, T/C was 70.9%.

Question: What about the viability, T/C [36] of the same compound?
Answer: The viability, T/C was 61.5%.

Question: What does the source list for COc1cc(C2c3cc4c(cc3C(OC3OC5COC(C)OC5C(O)C3O)C3COC(=O)C23)OCO4)cc(OC)c1O (stereo unspecified) + Cc1cccc(N(C)C(=O)C2C(O)CCN2c2nc(C)cc(C(F)(F)F)c2C#N)c1?
Answer: IC50 (second compound 0.0316 µM): > 10 µM; IC50 (second compound 0.1 µM): > 10 µM; IC50 (second compound 0.316 µM): > 10 µM; IC50 (second compound 1 µM): > 10 µM; IC50 (second compound 3.16 µM): > 10 µM; IC50 (second compound 10 µM): > 10 µM; viability, T/C [1]: 115%; viability, T/C [2]: 99%; viability, T/C [3]: 87.1%; viability, T/C [4]: 90.5%; viability, T/C [5]: 102%; viability, T/C [6]: 84.7%; viability, T/C [7]: 95.2%; viability, T/C [8]: 103%; viability, T/C [9]: 75.8%; viability, T/C [10]: 98.1%; viability, T/C [11]: 86.3%; viability, T/C [12]: 73.1%; viability, T/C [13]: 104%; viability, T/C [14]: 102%; viability, T/C [15]: 109%; viability, T/C [16]: 95.8%; viability, T/C [17]: 94.4%; viability, T/C [18]: 87.2%; viability, T/C [19]: 104%; viability, T/C [20]: 109%; viability, T/C [21]: 105%; viability, T/C [22]: 106%; viability, T/C [23]: 84.8%; viability, T/C [24]: 85.7%; viability, T/C [25]: 97.2%; viability, T/C [26]: 107%; viability, T/C [27]: 92.3%; viability, T/C [28]: 99.2%; viability, T/C [29]: 102%; viability, T/C [30]: 76.8%; viability, T/C [31]: 117%; viability, T/C [32]: 96.3%; viability, T/C [33]: 73.6%; viability, T/C [34]: 89.1%; viability, T/C [35]: 84.9%; viability, T/C [36]: 71.1%

Question: With CC1COCCN1c1cc(-c2ccnn2C)c2ccnc(-c3ccn[nH]3)c2n1 (stereo unspecified) + COC1C(OC(N)=O)C(O)C(Oc2ccc3c(O)c(NC(=O)c4ccc(O)c(CC=C(C)C)c4)c(=O)oc3c2C)OC1(C)C as the compound, how does the IC50 (second compound 0.0316 µM) read?
Answer: The IC50 was 0.745 µM.

Question: And the IC50 (second compound 0.1 µM)?
Answer: Its IC50 is 0.709 µM.

Question: And the IC50 (second compound 0.316 µM)?
Answer: The IC50 was 0.679 µM.

Question: And the IC50 (second compound 1 µM)?
Answer: The IC50 was 0.764 µM.

Question: What about the IC50 (second compound 3.16 µM) of the same compound?
Answer: Its IC50 is 0.698 µM.

Question: What about the IC50 (second compound 10 µM) of the same compound?
Answer: Its IC50 is 1.34 µM.

Question: And the viability, T/C [1]?
Answer: Its viability, T/C is 92.3%.

Question: And the viability, T/C [2]?
Answer: Its viability, T/C is 95.7%.

Question: And the viability, T/C [3]?
Answer: The viability, T/C was 76.7%.

Question: And the viability, T/C [4]?
Answer: The viability, T/C was 40.9%.

Question: And the viability, T/C [5]?
Answer: Its viability, T/C is 33.4%.

Question: And the viability, T/C [6]?
Answer: The viability, T/C was 30%.

Question: And the viability, T/C [7]?
Answer: The viability, T/C was 98.2%.

Question: And the viability, T/C [8]?
Answer: Its viability, T/C is 101%.

Question: What about the viability, T/C [9] of the same compound?
Answer: Its viability, T/C is 76%.

Question: What about the viability, T/C [10] of the same compound?
Answer: Its viability, T/C is 40.2%.

Question: And the viability, T/C [11]?
Answer: The viability, T/C was 23.1%.

Question: And the viability, T/C [12]?
Answer: Its viability, T/C is 31.7%.

Question: And the viability, T/C [13]?
Answer: Its viability, T/C is 97.6%.

Question: What about the viability, T/C [14] of the same compound?
Answer: The viability, T/C was 108%.

Question: What about the viability, T/C [15] of the same compound?
Answer: The viability, T/C was 63.3%.

Question: And the viability, T/C [16]?
Answer: The viability, T/C was 46%.

Question: And the viability, T/C [17]?
Answer: Its viability, T/C is 26.4%.

Question: What about the viability, T/C [18] of the same compound?
Answer: Its viability, T/C is 23.4%.

Question: And the viability, T/C [19]?
Answer: The viability, T/C was 89.6%.

Question: And the viability, T/C [20]?
Answer: The viability, T/C was 104%.

Question: And the viability, T/C [21]?
Answer: Its viability, T/C is 75.7%.

Question: And the viability, T/C [22]?
Answer: Its viability, T/C is 43.1%.

Question: And the viability, T/C [23]?
Answer: Its viability, T/C is 35.7%.

Question: And the viability, T/C [24]?
Answer: The viability, T/C was 29.9%.

Question: And the viability, T/C [25]?
Answer: Its viability, T/C is 88.4%.

Question: And the viability, T/C [26]?
Answer: Its viability, T/C is 101%.

Question: What about the viability, T/C [27] of the same compound?
Answer: The viability, T/C was 69.5%.

Question: And the viability, T/C [28]?
Answer: Its viability, T/C is 42.2%.

Question: And the viability, T/C [29]?
Answer: The viability, T/C was 33%.

Question: And the viability, T/C [30]?
Answer: Its viability, T/C is 26.9%.

Question: What about the viability, T/C [31] of the same compound?
Answer: The viability, T/C was 82.1%.

Question: What about the viability, T/C [32] of the same compound?
Answer: The viability, T/C was 95%.

Question: What about the viability, T/C [33] of the same compound?
Answer: The viability, T/C was 85.7%.

Question: What about the viability, T/C [34] of the same compound?
Answer: The viability, T/C was 54.9%.

Question: What about the viability, T/C [35] of the same compound?
Answer: The viability, T/C was 36.9%.

Question: And the viability, T/C [36]?
Answer: Its viability, T/C is 30.8%.
